Assay results: ChEMBL document CHEMBL5212743, “Selectivity Literature for EUbOPEN Chemogenomics Library wave 3” (2023)
Each block holds one molecule with its values, some of them ahead of it.

Key:
[1] = target: 5-hydroxytryptamine receptor 7 (Homo sapiens, UniProt P34969); test: Selectivity interaction (GPCR panel (PDSP screen)) EUB0000747a HTR7
[2] = target: Death-associated protein kinase 2 (Homo sapiens) (UniProt Q9UIK4); test: Selectivity interaction (KinomeScan (DiscoverX)) EUB0000747a DAPK2; conditions: at 1 µM
Sequence of Death-associated protein kinase 2 (Homo sapiens) (Q9UIK4 whole entry, looked up): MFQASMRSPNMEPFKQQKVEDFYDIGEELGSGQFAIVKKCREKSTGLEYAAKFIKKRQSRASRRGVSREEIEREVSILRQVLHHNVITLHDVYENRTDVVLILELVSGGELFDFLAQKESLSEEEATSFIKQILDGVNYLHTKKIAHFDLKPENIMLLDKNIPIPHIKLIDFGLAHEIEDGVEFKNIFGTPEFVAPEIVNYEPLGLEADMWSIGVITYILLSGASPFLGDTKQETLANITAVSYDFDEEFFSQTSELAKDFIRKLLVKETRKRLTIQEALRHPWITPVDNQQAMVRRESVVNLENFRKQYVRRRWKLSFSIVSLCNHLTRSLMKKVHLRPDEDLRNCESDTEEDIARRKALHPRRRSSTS

[3] = system: T1, Receptor-type tyrosine-protein kinase FLT3 (Homo sapiens), P36888 [D835Y]; test: Selectivity interaction (KinomeScan (DiscoverX)) EUB0000747a FLT3; conditions: at 1 µM
T1 sequence (whole entry): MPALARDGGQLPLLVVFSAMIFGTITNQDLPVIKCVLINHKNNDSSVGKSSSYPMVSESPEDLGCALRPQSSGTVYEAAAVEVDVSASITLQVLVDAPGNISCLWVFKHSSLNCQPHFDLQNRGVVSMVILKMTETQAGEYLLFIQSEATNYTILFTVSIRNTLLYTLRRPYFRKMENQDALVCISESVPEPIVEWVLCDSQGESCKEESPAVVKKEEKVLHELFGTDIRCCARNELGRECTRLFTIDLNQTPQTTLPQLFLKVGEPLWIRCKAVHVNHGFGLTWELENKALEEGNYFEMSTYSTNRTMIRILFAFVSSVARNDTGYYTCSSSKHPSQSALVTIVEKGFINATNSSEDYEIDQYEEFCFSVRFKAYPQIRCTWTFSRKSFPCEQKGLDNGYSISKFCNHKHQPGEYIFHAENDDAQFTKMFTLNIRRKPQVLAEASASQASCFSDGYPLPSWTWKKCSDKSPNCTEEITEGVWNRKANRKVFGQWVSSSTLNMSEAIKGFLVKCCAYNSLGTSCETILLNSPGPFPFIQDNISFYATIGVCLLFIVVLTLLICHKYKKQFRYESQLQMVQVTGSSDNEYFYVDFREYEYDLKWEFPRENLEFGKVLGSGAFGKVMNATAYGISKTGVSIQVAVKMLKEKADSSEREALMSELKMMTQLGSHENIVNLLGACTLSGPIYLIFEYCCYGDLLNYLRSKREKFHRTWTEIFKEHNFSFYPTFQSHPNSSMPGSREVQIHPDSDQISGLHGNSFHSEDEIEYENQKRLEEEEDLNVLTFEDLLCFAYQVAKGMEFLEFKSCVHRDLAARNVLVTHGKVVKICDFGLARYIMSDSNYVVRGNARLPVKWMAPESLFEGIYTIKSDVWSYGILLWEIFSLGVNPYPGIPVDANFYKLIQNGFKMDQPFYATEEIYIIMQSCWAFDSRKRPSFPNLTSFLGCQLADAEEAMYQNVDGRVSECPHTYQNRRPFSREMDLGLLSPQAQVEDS

[4] = target: Microtubule-associated serine/threonine-protein kinase 1 (Homo sapiens) (UniProt Q9Y2H9); test: Selectivity interaction (KinomeScan (DiscoverX)) EUB0000747a MAST1; conditions: at 1 µM
Sequence of Microtubule-associated serine/threonine-protein kinase 1 (Homo sapiens) (Q9Y2H9 whole entry, looked up): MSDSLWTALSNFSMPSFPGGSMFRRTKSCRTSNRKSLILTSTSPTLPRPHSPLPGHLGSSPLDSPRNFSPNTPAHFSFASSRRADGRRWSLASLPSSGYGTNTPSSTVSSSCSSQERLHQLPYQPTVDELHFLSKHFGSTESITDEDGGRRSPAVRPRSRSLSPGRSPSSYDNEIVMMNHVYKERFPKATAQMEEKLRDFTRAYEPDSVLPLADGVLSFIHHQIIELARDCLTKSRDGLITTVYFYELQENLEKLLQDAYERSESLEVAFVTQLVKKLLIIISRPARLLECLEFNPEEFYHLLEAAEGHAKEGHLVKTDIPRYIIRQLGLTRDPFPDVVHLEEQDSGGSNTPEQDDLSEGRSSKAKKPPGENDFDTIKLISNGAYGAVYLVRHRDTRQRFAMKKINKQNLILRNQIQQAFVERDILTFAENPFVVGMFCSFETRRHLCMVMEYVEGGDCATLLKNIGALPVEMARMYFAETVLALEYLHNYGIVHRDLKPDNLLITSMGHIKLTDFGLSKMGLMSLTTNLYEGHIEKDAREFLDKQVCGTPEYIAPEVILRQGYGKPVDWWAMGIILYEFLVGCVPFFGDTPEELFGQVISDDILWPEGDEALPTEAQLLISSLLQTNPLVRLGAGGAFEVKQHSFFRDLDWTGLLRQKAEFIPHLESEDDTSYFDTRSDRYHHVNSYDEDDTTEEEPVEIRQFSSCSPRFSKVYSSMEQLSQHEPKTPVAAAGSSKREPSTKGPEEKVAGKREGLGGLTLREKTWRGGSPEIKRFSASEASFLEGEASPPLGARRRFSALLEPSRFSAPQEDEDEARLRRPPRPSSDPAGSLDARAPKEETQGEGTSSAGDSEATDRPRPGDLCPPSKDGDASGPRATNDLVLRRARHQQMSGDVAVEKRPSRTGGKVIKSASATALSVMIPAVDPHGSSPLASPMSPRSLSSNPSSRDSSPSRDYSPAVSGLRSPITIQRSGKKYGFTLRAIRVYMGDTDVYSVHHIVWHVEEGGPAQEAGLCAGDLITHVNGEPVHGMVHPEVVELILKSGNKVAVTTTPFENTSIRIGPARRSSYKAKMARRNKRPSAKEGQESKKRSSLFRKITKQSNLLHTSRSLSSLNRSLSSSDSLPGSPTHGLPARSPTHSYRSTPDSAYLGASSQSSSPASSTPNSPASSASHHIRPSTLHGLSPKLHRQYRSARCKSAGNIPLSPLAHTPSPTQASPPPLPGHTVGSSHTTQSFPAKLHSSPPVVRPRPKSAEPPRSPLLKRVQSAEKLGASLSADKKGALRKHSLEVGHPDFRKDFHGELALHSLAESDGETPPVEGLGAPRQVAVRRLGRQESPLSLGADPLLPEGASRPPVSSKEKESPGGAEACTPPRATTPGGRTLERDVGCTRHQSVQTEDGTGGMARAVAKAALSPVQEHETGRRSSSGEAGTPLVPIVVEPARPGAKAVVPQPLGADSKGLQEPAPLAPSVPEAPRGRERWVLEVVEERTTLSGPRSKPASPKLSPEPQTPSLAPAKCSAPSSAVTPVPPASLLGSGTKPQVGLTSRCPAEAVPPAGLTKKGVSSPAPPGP

Ephrin type-B receptor 2 = Ephrin type-B receptor 2 (Homo sapiens, UniProt P29323)
Insulin receptor = Insulin receptor (Homo sapiens, UniProt P06213)
[5] = target: T2, Serine/threonine-protein kinase Sgk1 (Homo sapiens) (UniProt O00141); conditions: at 1 µM
T2 sequence (whole entry): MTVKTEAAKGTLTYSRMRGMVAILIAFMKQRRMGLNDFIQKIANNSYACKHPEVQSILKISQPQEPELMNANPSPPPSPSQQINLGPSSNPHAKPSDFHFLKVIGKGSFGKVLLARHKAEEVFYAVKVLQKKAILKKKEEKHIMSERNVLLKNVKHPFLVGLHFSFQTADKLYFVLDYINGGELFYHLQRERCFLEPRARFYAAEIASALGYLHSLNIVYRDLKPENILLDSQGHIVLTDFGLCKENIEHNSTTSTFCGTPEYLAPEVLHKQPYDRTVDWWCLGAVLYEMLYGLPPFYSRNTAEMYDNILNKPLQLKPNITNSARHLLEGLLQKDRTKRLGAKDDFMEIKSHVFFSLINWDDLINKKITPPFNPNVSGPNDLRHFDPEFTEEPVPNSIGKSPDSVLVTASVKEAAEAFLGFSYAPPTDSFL

[6] = target: Calcium/calmodulin-dependent protein kinase type IV (Homo sapiens) (UniProt Q16566); conditions: at 1 µM
Sequence of Calcium/calmodulin-dependent protein kinase type IV (Homo sapiens) (Q16566 whole entry): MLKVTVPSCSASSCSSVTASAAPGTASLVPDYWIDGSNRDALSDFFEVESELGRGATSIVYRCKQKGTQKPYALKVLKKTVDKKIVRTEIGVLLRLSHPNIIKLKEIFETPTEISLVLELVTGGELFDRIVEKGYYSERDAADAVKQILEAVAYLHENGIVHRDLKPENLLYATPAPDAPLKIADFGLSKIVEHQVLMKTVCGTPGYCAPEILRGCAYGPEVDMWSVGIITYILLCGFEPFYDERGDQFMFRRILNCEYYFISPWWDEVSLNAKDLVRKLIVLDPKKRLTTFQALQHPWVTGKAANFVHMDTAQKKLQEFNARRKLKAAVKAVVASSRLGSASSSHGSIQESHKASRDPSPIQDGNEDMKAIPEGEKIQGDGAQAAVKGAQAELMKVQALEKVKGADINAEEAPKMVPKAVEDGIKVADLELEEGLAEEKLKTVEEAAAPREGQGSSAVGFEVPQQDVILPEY

[7] = target: T3, Mitogen-activated protein kinase 15 (Homo sapiens) (UniProt Q8TD08); conditions: at 10 µM
T3 sequence (whole entry): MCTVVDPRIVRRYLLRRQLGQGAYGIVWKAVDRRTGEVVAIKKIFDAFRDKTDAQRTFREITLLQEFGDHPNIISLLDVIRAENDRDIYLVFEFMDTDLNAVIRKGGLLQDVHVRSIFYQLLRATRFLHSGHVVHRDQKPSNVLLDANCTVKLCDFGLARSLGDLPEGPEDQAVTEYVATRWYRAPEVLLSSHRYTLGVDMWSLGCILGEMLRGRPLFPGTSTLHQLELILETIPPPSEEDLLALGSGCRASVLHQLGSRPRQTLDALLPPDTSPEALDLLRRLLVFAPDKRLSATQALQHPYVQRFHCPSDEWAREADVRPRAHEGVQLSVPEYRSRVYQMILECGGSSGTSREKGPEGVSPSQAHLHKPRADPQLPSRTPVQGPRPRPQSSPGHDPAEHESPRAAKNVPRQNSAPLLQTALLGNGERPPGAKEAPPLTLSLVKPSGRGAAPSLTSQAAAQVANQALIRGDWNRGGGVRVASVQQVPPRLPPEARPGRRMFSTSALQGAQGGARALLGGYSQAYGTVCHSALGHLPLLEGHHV

D(3) dopamine receptor = D(3) dopamine receptor (Homo sapiens, UniProt P35462); test: Selectivity interaction (NIBR principial panel (12 GPCRs, 3 nuclear receptors, 3 transporters, and 7 other enzymes)) EUB0000254b DRD3
[8] = target: Prostaglandin G/H synthase 2 (Homo sapiens, UniProt P35354); test: Selectivity interaction (NIBR principial panel (12 GPCRs, 3 nuclear receptors, 3 transporters, and 7 other enzymes)) EUB0000254b PTGS2
Acetylcholinesterase = Acetylcholinesterase (Homo sapiens, UniProt P22303); test: Selectivity interaction (NIBR principial panel (12 GPCRs, 3 nuclear receptors, 3 transporters, and 7 other enzymes)) EUB0000254b ACHE
Sequence of Acetylcholinesterase (P22303 whole entry): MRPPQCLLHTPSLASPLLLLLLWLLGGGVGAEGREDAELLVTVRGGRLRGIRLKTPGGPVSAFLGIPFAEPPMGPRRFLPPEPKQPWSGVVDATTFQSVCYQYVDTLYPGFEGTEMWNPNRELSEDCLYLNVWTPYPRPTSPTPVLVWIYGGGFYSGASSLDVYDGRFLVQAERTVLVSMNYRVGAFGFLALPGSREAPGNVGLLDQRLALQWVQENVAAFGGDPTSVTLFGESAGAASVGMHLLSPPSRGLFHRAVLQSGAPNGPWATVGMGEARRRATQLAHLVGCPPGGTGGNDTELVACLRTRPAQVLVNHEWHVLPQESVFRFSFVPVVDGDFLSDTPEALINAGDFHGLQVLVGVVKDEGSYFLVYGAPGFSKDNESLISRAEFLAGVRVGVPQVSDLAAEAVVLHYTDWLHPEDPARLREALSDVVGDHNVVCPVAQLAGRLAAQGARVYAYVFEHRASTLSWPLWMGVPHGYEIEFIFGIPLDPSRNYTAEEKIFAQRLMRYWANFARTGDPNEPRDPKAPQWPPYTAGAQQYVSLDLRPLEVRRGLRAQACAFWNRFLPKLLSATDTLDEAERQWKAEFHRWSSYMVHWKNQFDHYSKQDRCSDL

[9] = target: Nucleosome-remodeling factor subunit BPTF (Homo sapiens, UniProt Q12830); test: Selectivity interaction (Bromodomain panel (DSF assay)) EUB0000201c BPTF
[10] = target: Bromodomain-containing protein 4 (Homo sapiens, UniProt O60885); test: Selectivity interaction (Bromodomain panel (DSF assay)) EUB0000201c BRD4
[11] = target: T4, Bromodomain-containing protein 7 (Homo sapiens) (UniProt Q9NPI1); test: Selectivity interaction (Bromodomain panel (DSF assay)) EUB0000201c BRD7
T4 sequence (whole entry): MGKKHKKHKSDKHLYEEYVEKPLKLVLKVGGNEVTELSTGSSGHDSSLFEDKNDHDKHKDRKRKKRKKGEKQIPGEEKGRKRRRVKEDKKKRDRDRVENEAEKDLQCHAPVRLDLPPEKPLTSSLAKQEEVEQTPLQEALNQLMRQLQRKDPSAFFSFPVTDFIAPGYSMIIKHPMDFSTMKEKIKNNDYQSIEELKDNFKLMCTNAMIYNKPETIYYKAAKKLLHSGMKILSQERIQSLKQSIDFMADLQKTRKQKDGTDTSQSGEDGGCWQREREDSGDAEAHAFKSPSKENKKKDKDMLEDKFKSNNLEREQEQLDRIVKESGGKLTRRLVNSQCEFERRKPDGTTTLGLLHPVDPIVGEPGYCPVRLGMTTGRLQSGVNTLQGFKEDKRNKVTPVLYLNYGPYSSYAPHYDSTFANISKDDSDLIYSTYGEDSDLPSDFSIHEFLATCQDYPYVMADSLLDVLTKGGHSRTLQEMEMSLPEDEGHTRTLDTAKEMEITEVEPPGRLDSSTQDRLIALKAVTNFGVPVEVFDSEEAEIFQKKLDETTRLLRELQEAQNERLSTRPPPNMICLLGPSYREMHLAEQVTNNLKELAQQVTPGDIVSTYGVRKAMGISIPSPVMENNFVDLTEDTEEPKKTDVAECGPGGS

[12] = target: T5, Chromatin remodeling regulator CECR2 (Homo sapiens, UniProt Q9BXF3); test: (§1) Selectivity interaction (Bromodomain panel (DSF assay)) EUB0000201c CECR2
Target sequence in this assay (Q9BXF3 whole entry, looked up): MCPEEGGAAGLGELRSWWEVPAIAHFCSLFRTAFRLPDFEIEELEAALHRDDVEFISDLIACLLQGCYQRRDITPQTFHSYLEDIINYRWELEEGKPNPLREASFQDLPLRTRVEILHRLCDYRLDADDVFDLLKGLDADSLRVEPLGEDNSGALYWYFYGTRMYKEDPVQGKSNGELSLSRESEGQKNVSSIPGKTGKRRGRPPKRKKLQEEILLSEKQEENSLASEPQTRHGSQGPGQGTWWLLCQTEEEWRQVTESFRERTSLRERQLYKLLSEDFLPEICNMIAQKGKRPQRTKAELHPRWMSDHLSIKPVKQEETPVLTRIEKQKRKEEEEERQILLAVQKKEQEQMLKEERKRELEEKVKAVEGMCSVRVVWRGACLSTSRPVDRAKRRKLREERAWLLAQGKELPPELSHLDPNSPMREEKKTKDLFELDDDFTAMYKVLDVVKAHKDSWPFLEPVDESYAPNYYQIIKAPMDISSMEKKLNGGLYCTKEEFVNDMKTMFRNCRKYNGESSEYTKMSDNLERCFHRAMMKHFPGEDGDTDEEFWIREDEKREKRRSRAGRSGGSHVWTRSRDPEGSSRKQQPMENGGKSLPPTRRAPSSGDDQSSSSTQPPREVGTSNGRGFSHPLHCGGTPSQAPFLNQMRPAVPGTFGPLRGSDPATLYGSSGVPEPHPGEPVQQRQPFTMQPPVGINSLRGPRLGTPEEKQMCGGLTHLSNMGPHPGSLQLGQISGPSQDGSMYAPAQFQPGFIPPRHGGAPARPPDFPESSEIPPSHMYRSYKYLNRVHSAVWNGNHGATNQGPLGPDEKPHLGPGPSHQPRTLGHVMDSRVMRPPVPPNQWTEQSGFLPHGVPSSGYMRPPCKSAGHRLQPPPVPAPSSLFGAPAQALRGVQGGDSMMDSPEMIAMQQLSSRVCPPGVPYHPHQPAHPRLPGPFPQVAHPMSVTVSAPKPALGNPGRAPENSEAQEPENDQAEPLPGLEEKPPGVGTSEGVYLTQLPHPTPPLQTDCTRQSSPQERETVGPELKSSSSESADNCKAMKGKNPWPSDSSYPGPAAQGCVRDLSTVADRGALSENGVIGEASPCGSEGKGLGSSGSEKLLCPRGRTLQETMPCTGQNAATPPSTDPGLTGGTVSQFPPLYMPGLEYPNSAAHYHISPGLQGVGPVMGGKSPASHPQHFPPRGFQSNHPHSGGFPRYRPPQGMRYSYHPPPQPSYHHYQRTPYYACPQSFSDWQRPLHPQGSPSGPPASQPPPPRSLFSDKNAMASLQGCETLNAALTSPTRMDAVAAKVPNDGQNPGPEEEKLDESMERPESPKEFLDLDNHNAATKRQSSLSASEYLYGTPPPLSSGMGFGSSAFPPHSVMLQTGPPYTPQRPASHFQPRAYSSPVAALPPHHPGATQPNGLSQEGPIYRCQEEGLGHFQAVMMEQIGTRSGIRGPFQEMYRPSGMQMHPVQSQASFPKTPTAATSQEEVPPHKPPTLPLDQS

[13] = target: T5, Chromatin remodeling regulator CECR2; test: as §1; remark: listed apart in the source
Target sequence in this assay (Q9BXF3 whole entry, looked up): as above

[14] = target: T5, Chromatin remodeling regulator CECR2; test: Selectivity interaction (Cellular FRAP assay) EUB0000201c CECR2
Target sequence in this assay (Q9BXF3 whole entry): as the sequence (Q9BXF3 whole entry, looked up) above

[15] = target: SWI/SNF-related matrix-associated actin-dependent regulator of chromatin subfamily A member 4 (Homo sapiens) (UniProt P51532); test: Selectivity interaction (Bromodomain panel (DSF assay)) EUB0000201c SMARCA4
[16] = target: Transcription initiation factor TFIID subunit 1 (Homo sapiens, UniProt P21675); test: Selectivity interaction (Bromodomain panel (DSF assay)) EUB0000201c TAF1

Sequence of 5-hydroxytryptamine receptor 7 (P34969 whole entry): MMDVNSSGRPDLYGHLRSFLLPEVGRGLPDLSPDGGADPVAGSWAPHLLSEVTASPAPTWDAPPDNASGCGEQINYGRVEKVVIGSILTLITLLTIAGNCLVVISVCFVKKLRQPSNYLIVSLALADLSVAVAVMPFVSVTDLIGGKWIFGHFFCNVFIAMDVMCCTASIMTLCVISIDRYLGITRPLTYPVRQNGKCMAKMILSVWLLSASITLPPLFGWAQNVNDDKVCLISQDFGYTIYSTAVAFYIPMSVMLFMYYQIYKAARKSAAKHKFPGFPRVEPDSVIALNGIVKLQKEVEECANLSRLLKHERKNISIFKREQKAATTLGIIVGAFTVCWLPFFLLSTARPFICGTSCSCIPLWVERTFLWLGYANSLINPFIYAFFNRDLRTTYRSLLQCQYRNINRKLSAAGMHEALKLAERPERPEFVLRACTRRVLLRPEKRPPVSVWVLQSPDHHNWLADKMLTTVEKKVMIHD

Ki [1]: > 10000 nM
% of control [3]: 42%
% of control [4]: 29%
SMILES: CO[C@@H](C)c1c(Nc2ccc([C@@H](N(C)C(=O)C3CCS(=O)(=O)CC3)C(F)(F)F)cc2)cnc2cc(Cl)nn12 [NVS-MALT1-C]
% of control [2]: 41%

IC50 (Ephrin type-B receptor 2): > 10000 nM
IC50 (Insulin receptor): > 10000 nM
% of inhibition [5]: 0.3%
% of inhibition [6]: 22.5%
SMILES: OCCn1cc(-c2cnc3nnn(Cc4ccc5ncccc5c4)c3n2)cn1 [PF-04217903]
% of inhibition [7]: 0.4%

SMILES: Cc1c(Nc2ccc(S(=O)(=O)N3CCN(C)CC3)cc2F)nc2ccc(Nc3cnn(C4CC4)c3)cn2c1=O
IC50 (D(3) dopamine receptor): 950 nM
IC50 [8]: 800 nM
IC50 (Acetylcholinesterase): 5500 nM

dTm [9]: < 2 K
dTm [10]: < 2 K
dTm [11]: < 2 K
dTm [12]: 12.5 K
dTm [13]: 15.5 K
EC50 [14]: 100 nM
dTm [15]: < 2 K
dTm [16]: < 2 K
SMILES: CCCS(=O)(=O)c1nc(NC2CC2)cc(-c2ccc3c(ccn3C3CC(C)(C)NC(C)(C)C3)c2)n1
